Results on 16 compounds are retold here after patent publication US11426393B2, “Prolyl hydroxylase inhibitors and methods of use” (Akebia Therapeutics, Inc., priority 2006, dated 2022).

The test system of assay [1] is VEGF. Description: VEGF ELISA assay. Type of assay: cell-based. The note with it: Homo sapiens; HEK293 cells; % of DFO stimulation. The method, then: HEK293 cells are seeded in 96-well poly-lysine coated plates at 20,000 ceils per well in DMEM (10% FBS, 1% NEAA, 0.1% glutamine). Following overnight incubation, the cells are washed with 100 uL of Opti-MEM (Gibco, Carlsbad, Calif.) to remove serum. Compound in DMSO is serially diluted (beginning with 100 μM) in Qpti-MEM and added to the cells. The conditioned media is analyzed for VEGF with a Quantikine human VEGF immunoassay kit (R&D Systems, Minneapolis, Minn.). Optical density measurements at 450 nm are recorded using the Spectra Max 250 (Molecular Devices, Sunnyvale, Calif.). Data defined as % of DFO stimulation is used to calculate EC50 values with GraphPad Prism 4 software (San Diego, Calif.).

Assay [2] concerns the target human EGLN-1 (Homo sapiens (Human), UniProt Q9GZT9). Briefly: EGLN-1 activity assay (MALDI-TOF MS). Type of assay: biochemical. The settings on record: read-out: EGLIN1 IC50. The method, then: (§1) Data defined as percent conversion of substrate to product is analyzed in GraphPad Prism 4 to calculate IC50 values.
For assay [3], the target named is human EGLN-3 (Homo sapiens (Human), UniProt Q9H6Z9). Briefly: EGLN-3 activity assay (MALDI-TOF MS). The note with it: His-MBP-TVMV-EGLN-3 fusion; HIF-1α peptide 556-574 as substrate; read-out: EGLIN3 IC50. Type of assay: biochemical. The method, then: as §1
Chain of human EGLN-3 (Q9H6Z9 whole entry, the tested form may be a part): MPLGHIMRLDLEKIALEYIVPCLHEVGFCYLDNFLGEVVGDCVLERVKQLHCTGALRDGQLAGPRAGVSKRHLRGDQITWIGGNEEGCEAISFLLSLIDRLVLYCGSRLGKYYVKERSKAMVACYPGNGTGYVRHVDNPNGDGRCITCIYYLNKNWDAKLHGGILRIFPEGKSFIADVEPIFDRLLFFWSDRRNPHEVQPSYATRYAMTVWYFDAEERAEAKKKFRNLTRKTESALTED
The test system of assay [4] is EPO. Briefly: Mouse serum EPO assay (mouse ischemic hindlimb study). Type of assay: in vivo. The method, then:
(§2) Mouse Ischemic Hindlimb Study
(§3) All animal work is conducted in accordance with the Guide for the Care and Use of Laboratory Animals (National Academy of Sciences; Copyright©1996) and the Institutional Animal Care and Use Committee guidelines at Procter and Gamble Pharmaceuticals. We studied 9-10 week old male C57Bl/6 mice from Charles River Laboratory (Portage, Mich.). The mice are orally dosed with vehicle (aqueous carbonate buffer, 50 mM; pH 9.0) or compound 1 in vehicle at 50 mg/kg or 100 mg/kg. The animals are dosed three times: day 1 at 8 am and 5 pm, day 2 at […]. One hour after the first dose, unilateral arterial ligation is performed under anesthesia using isoflurane. The femoral artery is ligated proximal to the origin of the popliteal artery. The contralateral limb underwent a sham surgical procedure. Ligation is performed in an alternating fashion between right and left hindlimbs. Two hours after 8 am dosing on day 2, we obtained blood by ventricular stick while the mice are anesthetized with isoflurane. Serum samples for EPO analysis are obtained using gel clot serum separation tubes. Heart, liver, and gastrocnemius muscles are harvested, snap-frozen in liquid nitrogen, and stored in −80° C. until use.
The mouse serum EPO is detected using Mouse Quantikine Erythropoietin ELISA kit from R&D Systems according to manufacturer's ins tractions.

In assay [5] the test system is HIF-1α. Briefly: Mouse tissue HIF Western blot analysis. Type of assay: in vivo. The note with it: mouse liver, FIG. 1. The method, then:
as §2, §3
Mouse Tissue HIF Western Blot Analysis
Tissues from mice stored at −80° C. are powdered with mortar and pestle chilled with liquid nitrogen. […]

As usually defined, the EC50 is the midpoint of the concentration-response curve. Read a low EC50 as a more potent agent. In general, IC50 refers to the point on the concentration scale where inhibition reaches its midpoint.

Molecules are shown by their SMILES.

Chain of human EGLN-1 (Q9GZT9 179-426): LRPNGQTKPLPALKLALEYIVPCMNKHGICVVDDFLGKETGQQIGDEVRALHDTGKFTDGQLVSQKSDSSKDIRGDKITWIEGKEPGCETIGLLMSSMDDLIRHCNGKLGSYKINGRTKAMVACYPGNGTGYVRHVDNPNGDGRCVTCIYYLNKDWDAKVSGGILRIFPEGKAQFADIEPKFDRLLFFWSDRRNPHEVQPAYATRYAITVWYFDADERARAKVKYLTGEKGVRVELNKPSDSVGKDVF

In assay [1], `COC(=O)CNC(=O)c1ncc(-c2ccccc2Cl)cc1O` registered an EC50 of 7.7 µM. This counts as single-digit micromolar. As for `CNC(=O)CNC(=O)c1ncc(-c2cccc(Cl)c2)cc1O`, the IC50 in assay [2] worked out at 1.2 µM; in assay [3], 1.3 µM. In addition, the EPO response entry in assay [4] (in vivo response, mouse serum EPO) is recorded as “yes”. The same compound had an EC50 in assay [1] of 1.4 µM. For the compound `N#Cc1cccc(-c2cnc(C(=O)NCC(=O)O)c(O)c2)c1`, in assay [1], the EC50 was > 100 µM. For the compound `COC(=O)CNC(=O)c1ncc(-c2ccc(Cl)cc2)cc1O`, in assay [1], the EC50 was > 100 µM. On the same count and under the same terms, with `O=C(O)CNC(=O)c1ncc(-c2cccc(-c3nn[nH]n3)c2)cc1O` the figure was > 100 µM.

In the case of `COC(=O)CNC(=O)c1ncc(-c2cccc(C(=O)N3CCCC3)c2)cc1O`, the EC50 in assay [1] was > 100 µM. The same measure, in the same setting: with `COC(=O)CNC(=O)c1ncc(-c2cccc(Cl)c2)cc1O` the figure was 9.9 µM. With `CC(C)c1ccc(-c2cnc(C(=O)NCC(=O)O)c(O)c2)cc1`, the EC50 in assay [1] worked out at 15 µM. Regarding `Cc1ccc(Cl)cc1-c1cnc(C(=O)NCC(=O)O)c(O)c1`, the EC50 in assay [1] came out at 3.3 µM.

For the compound `CC(C)Oc1ccc(-c2cnc(C(=O)NCC(=O)O)c(O)c2)cc1`, the EC50 in assay [1] was > 100 µM. Same read-out and setting: with `Cc1ccc(-c2ccc(C(=O)NCC(=O)O)c(O)c2)cc1` the figure was > 100 µM. The same measure, in the same setting: with `COC(=O)CNC(=O)c1ncc(-c2cccc(C(N)=O)c2)cc1O` the figure was 50.1 µM; with `COC(=O)CNC(=O)c1ncc(-c2ccc(C)cc2)cc1O`, 8.2 µM.

With `O=C(O)CNC(=O)c1ncc(-c2cccc(Cl)c2)cc1O` [{[5-(3-Chlorophenyl)-3-hydroxypyridine-2-carbonyl]amino}-acetic acid], in assay [5], the “stabilization of HIF-1α (immunoblot analysis of nuclear extracts)” value is recorded as “stabilization of HIF-1α”. The “erythropoietin level versus vehicle” value in assay [4] (mouse serum after oral dosing, FIG. 2) is recorded as “elevated versus vehicle”. `O=C(O)CNC(=O)c1ncc(-c2cccc(C(=O)N3CCCC3)c2)cc1O`: the EC50 in assay [1] is > 100 µM. `O=C(O)CNC(=O)c1ncc(-c2cccc(Cl)c2)cc1O` [drawing 122] displayed an EC50 in assay [1] of 7.6 µM.
